EC50 data for 21 molecules are collected here from patent US20260001914A1, “MACROCYCLIC PEPTIDES TARGETING KRAS” (Merck Sharp & Dohme LLC, priority 2022, published 2026).

*1 amine or outer side, *2 acyl side, *3 side chain or, on linkers, in order; H or OH if unused. Where a SMILES comes first, the peptide text is derived from it. Bridges are numbered along the chain shown (N, C = ends). [ ]: non-standard residue; d: D form. Phe(4-guanidino) = N=C(N)Nc1ccc(C[C@H](N)C(=O)O)cc1; X65 = O=C([C@H](CCCn1ccnc1[N+](=O)[O-])N[*:1])[*:2]; X23 = O=C([C@H](Cc1ccc(C(F)(F)F)nc1)N[*:1])[*:2]; Ala(pyrimidin-5-yl) = N[C@@H](Cc1cncnc1)C(=O)O; NMePhe(3-F) = CN[C@@H](Cc1cccc(F)c1)C(=O)O; 3Pal(6-OMe) = COc1ccc(C[C@H](N)C(=O)O)cn1; X26 = Cn1cc(C[C@H](N[*:1])C(=O)[*:2])cn1; X11 = CC(C)(F)CC[C@H](N[*:1])C(=O)[*:2]; NMeAha = CN[C@@H](CCN=[N+]=[N-])C(=O)O; 1Nal = N[C@@H](Cc1cccc2ccccc12)C(=O)O; X61 = O=C(C12COC(CN[*:1])(C1)C2)[*:2]; Phe(2-F) = N[C@@H](Cc1ccccc1F)C(=O)O; NMe3Pal = CN[C@@H](Cc1cccnc1)C(=O)O; X1 = O=C(C12CC(CN[*:1])(C1)C2)[*:2]; NMeF = CN[C@@H](Cc1ccccc1)C(=O)O; PhLac = O=C(O)[C@@H](O)Cc1ccccc1; X79 = O=C(C1CCC(N[*:1])CC1)[*:2]; 3Pal = N[C@@H](Cc1cccnc1)C(=O)O; d3Pal = N[C@H](Cc1cccnc1)C(=O)O; Gly(N(CH2)3NH2) = NCCCNCC(=O)O; Ahp(2) = CCCCC[C@H](N)C(=O)O; Cba = N[C@@H](CC1CCC1)C(=O)O; NMeS = CN[C@@H](CO)C(=O)O; αMeC = C[C@](N)(CS)C(=O)O; NMeA = CN[C@@H](C)C(=O)O; Nle = CCCC[C@H](N)C(=O)O; Nva = CCC[C@H](N)C(=O)O

This test deals with KRAS-G12D protein (Homo sapiens, UniProt P01116, G12D). The experiment in a line: SOS-mediated nucleotide exchange assay (BODIPY-GDP / Tb-streptavidin TR-FRET). The test is classed as biochemical.
Sequence of KRAS-G12D protein (P01116 1-188 isoform P01116-2 G12D): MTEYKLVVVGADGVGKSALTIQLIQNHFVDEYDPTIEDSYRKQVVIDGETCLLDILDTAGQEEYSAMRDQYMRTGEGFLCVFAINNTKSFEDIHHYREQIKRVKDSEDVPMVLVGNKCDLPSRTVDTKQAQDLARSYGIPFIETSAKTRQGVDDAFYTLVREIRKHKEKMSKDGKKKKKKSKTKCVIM
In the case of `CCCC[C@@H]1NC(=O)[C@H](Cc2cccnc2)NC(=O)[C@H](C)N(C)C(=O)[C@H](Cc2ccccc2)OC(=O)C23CC(CNC(=O)[C@H](Cc4cccnc4)N(C)C(=O)[C@H](CCC)NC(=O)[C@H](Cc4ccccc4F)NC1=O)(C2)C3` [compound 116, cyclo(FLac-NMeA-3Pal-Nle-Phe2F-Nva-NMe3Pal-amBCP)] (cyclo([3Pal][Nle][Phe(2-F)][Nva][NMe3Pal][X1][PhLac][NMeA])), the EC50 is 154 nM.

In turn, `C[C@H]1C(=O)N[C@@H](Cc2cncnc2)C(=O)N[C@@H](CC2CCC2)C(=O)N[C@@H](Cc2ccccc2F)C(=O)N[C@@H](CCC(C)(C)F)C(=O)N(C)[C@@H](Cc2ccccc2)C(=O)NCC23CC(C2)(C3)C(=O)O[C@@H](Cc2ccccc2)C(=O)N1C` [compound 225, cyclo(FLac-NMeA-PyrimAla-cBuA-Phe2F-hL3F-NMeF-amBCP)] (cyclo([Cba][Phe(2-F)][X11][NMeF][X1][PhLac][NMeA][Ala(pyrimidin-5-yl)])) came in with an EC50 of 1.87 nM.

On to `CCCCC[C@@H]1NC(=O)[C@H](Cc2ccc(OC)cc2)NC(=O)[C@H](CC2CCC2)NC(=O)[C@H](Cc2cccnc2)NC(=O)[C@H](C)N(C)C(=O)[C@H](Cc2ccccc2)OC(=O)C23CC(CNC(=O)[C@H](Cc4ccccc4)N(C)C1=O)(C2)C3` [compound 227, cyclo(FLac-NMeA-3Pal-cBuA-TyrOMe-Ahp-NMeF-amBCP)] (cyclo([3Pal][Cba]Y(Me)[Ahp(2)][NMeF][X1][PhLac][NMeA])), for which the EC50 was found to be 37.9 nM.

With `CCCC[C@@H]1NC(=O)[C@H](Cc2cnn(C)c2)NC(=O)[C@H](C)N(C)C(=O)[C@H](Cc2ccccc2)OC(=O)C23CC(CNC(=O)[C@H](Cc4cccnc4)N(C)C(=O)[C@H](CCCC)NC(=O)[C@H](Cc4ccccc4F)NC1=O)(C2)C3` [compound 400, cyclo(FLac-NMeA-Ala4PyzlMe-Nle-Phe2F-Nle-NMe3Pal-amBCP)] (cyclo([NMe3Pal][X1][PhLac][NMeA][X26][Nle][Phe(2-F)][Nle])), the EC50 worked out at 14 nM.

Molecule `CCCC[C@@H]1NC(=O)[C@H](Cc2cccnc2)NC(=O)[C@H](COC)N(C)C(=O)[C@H](Cc2ccccc2)OC(=O)C23CC(CNC(=O)[C@H](Cc4cccnc4)N(C)C(=O)[C@H](CCCC)NC(=O)[C@H](Cc4ccccc4F)NC1=O)(C2)C3` [compound 255, cyclo(FLac-nMeSMe-3Pal-Nle-Phe2F-Nle-NMe3Pal-amBCP)] (cyclo([3Pal][Nle][Phe(2-F)][Nle][NMe3Pal][X1][PhLac][NMeS](Me))) returned an EC50 of 6410 nM.

As for `CCCC[C@@H]1NC(=O)[C@H](Cc2ccccc2F)NC(=O)[C@H](CC(C)C)NC(=O)[C@H](Cc2cncnc2)NC(=O)[C@H](C)N(C)C(=O)[C@H](Cc2ccccc2)OC(=O)C23CC(CNC(=O)[C@H](Cc4cccnc4)N(C)C1=O)(C2)C3` [compound 129, cyclo(FLac-NMeA-PyrimAla-L-Phe2F-Nle-NMe3Pal-amBCP)] (cyclo([PhLac][NMeA][Ala(pyrimidin-5-yl)]L[Phe(2-F)][Nle][NMe3Pal][X1])), it took 4.38 nM to reach a half-maximal effect (EC50).

With `CCCC[C@@H]1NC(=O)[C@H](Cc2ccc(C(F)(F)F)nc2)NC(=O)[C@H](CCN=[N+]=[N-])N(C)C(=O)[C@H](Cc2ccccc2)OC(=O)C23CC(CNC(=O)[C@H](Cc4cccnc4)N(C)C(=O)[C@H](CCCC)NC(=O)[C@H](Cc4ccccc4F)NC1=O)(C2)C3` [compound 241, cyclo(FLac-NMeDabN3-4CF33Pal-Nle-Phe2F-Nle-NMe3Pal-amBCP)] (cyclo([NMe3Pal][X1][PhLac][NMeAha][X23][Nle][Phe(2-F)][Nle])), the EC50 worked out at 435 nM.

Molecule `CCCCC[C@@H]1NC(=O)[C@H](Cc2ccc(OC)cc2)NC(=O)[C@H](CC2CCC2)NC(=O)[C@H](Cc2ccc(OC)nc2)NC(=O)[C@H](CCCNC(=N)N)NC(=O)[C@H](Cc2ccccc2)NC(=O)CSC[C@@](C)(C(N)=O)NC(=O)[C@H](Cc2ccccc2)N(C)C1=O` [compound 365, cyclo(F-R-40Me3Pal-cBuA-TyrOMe-Ahp-NMeF-aMeCl-ClAc)] ({CH2CO}-FR[3Pal(6-OMe)][Cba]Y(Me)[Ahp(2)][NMeF][αMeC]-NH2; thioether N-8) yielded an EC50 of 50.3 nM.

Molecule `CCCC[C@@H]1NC(=O)[C@H](Cc2ccc(NC(=N)N)cc2)NC(=O)[C@H](CCCNC(=N)N)NC(=O)[C@H](Cc2cccc3ccccc23)NC(=O)CNC(=O)[C@H](C)NC(=O)[C@H](Cc2ccccc2)N(C)C(=O)[C@H](CCCC)NC(=O)[C@H](Cc2ccc(O)cc2)NC1=O` [compound 199, cyclo(INal-R-Phe4Gn-Nle-Y-Nle-NMeF-A-G)] (cyclo([1Nal]R[Phe(4-guanidino)][Nle]Y[Nle][NMeF]AG)) had an EC50 of 346 nM.

In turn, `CCCC[C@@H]1NC(=O)[C@H](COC)NC(=O)[C@H](CC2CCC2)NC(=O)[C@H](Cc2cccnc2)NC(=O)[C@H](CCCNC(=N)N)NC(=O)[C@H](Cc2ccccc2)NC(=O)CSC[C@@](C)(C(N)=O)NC(=O)[C@H](Cc2ccccc2)N(C)C1=O` [compound 52, cyclo(F-R-3Pal-cBuA-SerOMe-Nle-NMeF-aMeCl-ClAc)] ({CH2CO}-FR[3Pal][Cba]S(Me)[Nle][NMeF][αMeC]-NH2; thioether N-8) displayed an EC50 of 943 nM.

Consider `CCCC[C@@H]1NC(=O)[C@H](Cc2cccnc2)NC(=O)[C@H](CCN=[N+]=[N-])N(C)C(=O)[C@H](Cc2ccccc2)NC(=O)C23CC(CNC(=O)[C@H](Cc4cccnc4)N(C)C(=O)[C@H](CCCC)NC(=O)[C@H](Cc4ccccc4F)NC1=O)(C2)C3` [compound 245, cyclo(F-NMeDabN3-3Pal-Nle-Phe2F-Nle-NMe3Pal-amBCP)] (cyclo(F[NMeAha][3Pal][Nle][Phe(2-F)][Nle][NMe3Pal][X1])), for which the EC50 was 267 nM.

Molecule `CCC[C@@H]1NC(=O)[C@H](Cc2ccc(O)cc2)NC(=O)[C@H](CC(C)C)NC(=O)[C@H](Cc2ccc(O)cc2)NC(=O)[C@H](CCCNC(=N)N)NC(=O)[C@H](Cc2ccccc2)NC(=O)CSC[C@@H](C(N)=O)NC(=O)[C@H](Cc2ccccc2)N(C)C1=O` [compound 16, cyclo(F-R-Y-L-Y-Nva-NMeF-Cl-ClAc)] registered an EC50 of 3620 nM.

The molecule `CCCC[C@@H]1NC(=O)[C@H](Cc2ccccc2F)NC(=O)[C@H](CC2CCC2)NC(=O)[C@@H](Cc2cccnc2)NC(=O)[C@H](CCCNC(=N)N)NC(=O)[C@H](Cc2ccccc2)NC(=O)C23COC(CNC(=O)[C@H](Cc4cccnc4)N(C)C1=O)(C2)C3` [compound 106, cyclo(F-R-d3Pal-cBuA-Phe2F-Nle-NMe3Pal-amOBCH)] (cyclo(FR[d3Pal][Cba][Phe(2-F)][Nle][NMe3Pal][X61])) returned an EC50 of 6820 nM.

Turning to `CCCC[C@@H]1NC(=O)[C@H](Cc2ccccc2F)NC(=O)C(CC2CC(F)(F)C2)NC(=O)[C@H](Cc2cncnc2)NC(=O)[C@H](C)N(C)C(=O)[C@H](Cc2ccccc2)OC(=O)C23CC(CNC(=O)[C@H](Cc4cccnc4)N(C)C1=O)(C2)C3` (single isomer, unassigned) [compound 122, cyclo(FLac-NMeA-PyrimAla-rF2Cba-Phe2F-Nle-NMe3Pal-amBCP)], the response was half-maximal at 236 nM (EC50).

`CCCCC[C@@H]1NC(=O)[C@H](Cc2ccc(OC)cc2)NC(=O)[C@H](CC2CCC2)NC(=O)[C@H](Cc2ccn(C)n2)NC(=O)[C@H](CCCNC(=N)N)NC(=O)[C@H](Cc2ccccc2)NC(=O)CSC[C@@](C)(C(N)=O)NC(=O)[C@H](Cc2ccccc2)N(C)C1=O` [compound 362, cyclo(F-R-MePyzAla-cBuA-TyrOMe-Ahp-NMeF-aMeCl-ClAc)] had an EC50 of 1810 nM.

`CCCCC[C@@H]1NC(=O)[C@H](Cc2ccc(OC)cc2)NC(=O)[C@H](CC2CCC2)NC(=O)[C@H](Cc2ccc(NC(=N)N)cc2)NC(=O)CN(CCCN)C(=O)[C@H](Cc2ccccc2)NC(=O)CSC[C@@](C)(C(N)=O)NC(=O)[C@H](Cc2ccccc2)N(C)C1=O` [compound 388, cyclo(F-NPrNH2G-Phe4Gn-cBuA-TyrOMe-Ahp-NMeF-aMeCl-ClAc)] ({CH2CO}-F[Gly(N(CH2)3NH2)][Phe(4-guanidino)][Cba]Y(Me)[Ahp(2)][NMeF][αMeC]-NH2; thioether N-8): the EC50 amounted to 121 nM.

The molecule `CCCC[C@@H]1NC(=O)[C@H](Cc2cncnc2)NC(=O)[C@H](CO)N(C)C(=O)[C@H](Cc2ccccc2)OC(=O)C23CC(CNC(=O)[C@H](Cc4cccnc4)N(C)C(=O)[C@H](CCCC)NC(=O)[C@H](Cc4ccccc4F)NC1=O)(C2)C3` [compound 119, cyclo(FLac-NMeS-PyrimAla-Nle-Phe2F-Nle-NMe3Pal-amBCP)] (cyclo([NMe3Pal][X1][PhLac][NMeS][Ala(pyrimidin-5-yl)][Nle][Phe(2-F)][Nle])) returned an EC50 of 375 nM.

In the case of `CCCC[C@@H]1NC(=O)[C@H](Cc2cccnc2)NC(=O)[C@H](CCCNC(=N)N)NC(=O)[C@H](Cc2ccccc2)NC(=O)C2CCC(CC2)NC(=O)[C@H](Cc2ccccc2)N(C)C(=O)[C@H](CCCC)NC(=O)[C@H](Cc2ccc(OC)cc2)NC1=O` [compound 201, cyclo(F-R-3Pal-Nle-TyrOMe-Nle-NMeF-cHxclacid4NH2)] (cyclo([3Pal][Nle]Y(Me)[Nle][NMeF][X79]FR)), the EC50 is 256 nM.

Molecule `CCCC[C@@H]1NC(=O)[C@H](Cc2ccccc2F)NC(=O)[C@H](CC2CCC2)NC(=O)[C@@H](Cc2cccnc2)NC(=O)[C@H](CCCn2ccnc2[N+](=O)[O-])NC(=O)[C@H](Cc2ccccc2)NC(=O)C23CC(CNC(=O)[C@H](Cc4cccnc4)N(C)C1=O)(C2)C3` [compound 107, cyclo(F-NO2IMNva-d3Pal-cBuA-Phe2F-Nle-NMe3Pal-amBCP)] (cyclo(F[X65][d3Pal][Cba][Phe(2-F)][Nle][NMe3Pal][X1])) had an EC50 of 242 nM.

`CCCC[C@@H]1NC(=O)[C@H](Cc2cncnc2)NC(=O)[C@H](C)N(C)C(=O)[C@H](Cc2ccccc2)OC(=O)C23CC(CNC(=O)[C@H](Cc4cccc(F)c4)N(C)C(=O)[C@H](CCCC)NC(=O)[C@H](Cc4ccccc4F)NC1=O)(C2)C3` [compound 174, cyclo(FLac-NMeA-PyrimAla-Nle-Phe2F-Nle-NMePhe3F-amBCP)] (cyclo([NMeA][Ala(pyrimidin-5-yl)][Nle][Phe(2-F)][Nle][NMePhe(3-F)][X1][PhLac])): the midpoint of the response, the EC50, lay at 12.2 nM.

`CCCC[C@@H]1NC(=O)[C@H](Cc2cccnc2)NC(=O)[C@H](CO)N(C)C(=O)[C@H](Cc2ccccc2)OC(=O)C23CC(CNC(=O)[C@H](Cc4cccnc4)N(C)C(=O)[C@H](CCCC)NC(=O)[C@H](Cc4ccccc4F)NC1=O)(C2)C3` [compound 118, cyclo(FLac-NMeS-3Pal-Nle-Phe2F-Nle-NMe3Pal-amBCP)] (cyclo([3Pal][Nle][Phe(2-F)][Nle][NMe3Pal][X1][PhLac][NMeS])) showed an EC50 of 466 nM.
